The values that follow come from US10808007B2, “Desacetoxytubulysin H and analogs thereof” (WILLIAM MARSH RICE UNIVERSITY, priority 2015, dated 2020).

Read-outs that look alike come from different tables or passages of the source.

Holding throughout (format): cell-based
One test concerns melanoma cell lines. Put plainly: NCI-60 cytotoxicity, melanoma. The following applies: Homo sapiens. The protocol: (§1) A number of the synthesized compounds (i.e. Tb1-Tb23) were evaluated for their activity against a variety of cancer cell lines, namely the NCI-60 human cancer cell line panel representing leukemia, melanoma, lung, colon, brain, ovary, breast, prostate and kidney types of cancer through the In Vitro Cell Line Screening Project (IVCLSP) of the National Cancer Institute (NCI), and a summary of the results is shown in Table 1. […] As there was interest in the activity in certain other cell lines, these and the remaining compounds (Tb1-Tb41, PTb-D42 and PTb-D43) were subjected to further testing against MES SA (uterine sarcoma cells), MES SA DX (multidrug resistant uterine sarcoma cells), and HEK 293T (human embryonic kidney cells). […] Tubulysins are known to be substrates for Pgp pumps (Xiangming, et al., 2013; Kaur, et al., 2006; Szakacs, et al., 2006) as supported by the observed low activities of all tubulysins tested except Tb28, Tb32 and Tb33.

The next test deals with CNS cancer cell lines. Kind of test: NCI-60 cytotoxicity, CNS cancer. The settings on record: Homo sapiens. The method, then: as §1
A further test has as its system renal cancer cell lines. Put plainly: NCI-60 cytotoxicity, renal cancer. The settings on record: Homo sapiens. The method, then:
as §1

Another test deals with colon cancer cell lines. Put plainly: NCI-60 cytotoxicity, colon cancer. The settings on record: Homo sapiens. The method, then: as §1
The test system of another test is breast cancer cell lines. Kind of test: NCI-60 cytotoxicity, breast cancer. The following applies: Homo sapiens. The protocol:
as §1

Test [1] relates to non-small cell lung cancer cell lines. Kind of test: NCI-60 cytotoxicity, non-small cell lung cancer. The settings on record: Homo sapiens. The method, then:
as §1

Test [2] deals with ovarian cancer cell lines. Put plainly: NCI-60 cytotoxicity, ovarian cancer. The settings on record: Homo sapiens. The protocol:
as §1

The test system of test [3] is HEK 293T (human embryonic kidney cells). Put plainly: Cytotoxic assay (CellTiter-Glo, 72 h), HEK 293T. The settings on record: Homo sapiens, HEK-293T, read-out: IC50 HEK 293T.
The subject of test [4] is MES SA DX (multidrug resistant uterine sarcoma cells). Put plainly: Cytotoxic assay (CellTiter-Glo, 72 h), MES SA DX. The settings on record: Homo sapiens.
The test system of test [5] is prostate cancer cell lines. Kind of test: NCI-60 cytotoxicity, prostate cancer. The settings on record: Homo sapiens. The method, then:
as §1

Test [6] relates to leukemia cancer cell lines. Put plainly: NCI-60 cytotoxicity, leukemia. The settings on record: Homo sapiens. The protocol:
as §1

Test [7] relates to MES SA (uterine sarcoma cells). Put plainly: Cytotoxic assay (CellTiter-Glo, 72 h), MES SA. The following applies: Homo sapiens, MES-SA, read-out: IC50 MES SA.

Consider `CCC(C)[C@H](NC(=O)[C@H]1CCCCN1C)C(=O)N(C)[C@H](C[C@@H](OC(C)=O)c1nc(C(=O)NC23C4C5C2C2C3C4C52C(=O)OC)cs1)C(C)C` (stereo in doubt) [Tb11, Methyl 4-(2-((1R,3R)-1-acetoxy-3-((2S,3S)—N,3-dimethyl-2-((R)-1-methylpiperidine-2-carboxamido)-pentanamido)-4-methylpentyl)thiazole-4-carboxamido)cubane-1-carboxylate], for which the GI50 in the test on melanoma cell lines (NCI-60) came to 349 pM; in the test with melanoma cell lines (NCI-60, selected value), 349 pM; in the test on CNS cancer cell lines (NCI-60) it was 1150 pM; in the test with CNS cancer cell lines (NCI-60, selected value) it was 1150 pM; with renal cancer cell lines (NCI-60), 768 pM; in the test with colon cancer cell lines (NCI-60), 1140 pM. Also, the GI50 in the test on colon cancer cell lines (NCI-60, selected value) amounted to 1140 pM; in the test on breast cancer cell lines (NCI-60), 428 pM; in [1] (NCI-60), 331 pM; in test [2] (NCI-60), 489 pM; in [5] (NCI-60) it was 1130 pM; in [5] (NCI-60, selected value) it was 1130 pM. In [6] (NCI-60), this compound had a GI50 of 159 pM. Also, the IC50 was 260 pM in [3] (72 h), over 50000 pM in [4] and 840 pM in [7] (72 h).

For the compound `CCC(C)[C@H](NC(=O)CN(C)C)C(=O)N(C)[C@H](C[C@@H](OC(C)=O)c1nc(C(=O)NC23C4C5C2C2C3C4C52C(=O)OC)cs1)C(C)C` (stereo in doubt) [Tb13, Methyl 4-(2-((6S,9R,11R)-6-((S)-sec-butyl)-9-isopropyl-2,8-dimethyl-4,7,13-trioxo-12-oxa-2,5,8-triaza-tetradecan-11-yl)thiazole-4-carboxamido)cubane-1-carboxylate], the GI50 in the test with melanoma cell lines (NCI-60, selected value) stood at 40200 pM; in the test with CNS cancer cell lines (NCI-60, selected value), 117000 pM; with renal cancer cell lines (NCI-60, selected value), 167000 pM; in the test on colon cancer cell lines (NCI-60, selected value), 122000 pM; in the test on breast cancer cell lines (NCI-60, selected value) it was 136000 pM; in test [1] (NCI-60, selected value), 142000 pM. The 50% growth inhibitory concentration (GI50) in [2] (NCI-60, selected value) was determined as 111000 pM; in test [5] (NCI-60, selected value), 167000 pM; in [6] (NCI-60, selected value), 13800 pM. Further, the IC50 in [3] (72 h), in [4] and in test [7] (72 h) was over 50000 pM each time.

In the case of `CCC(C)[C@H](NC(=O)[C@H]1CCCCN1C)C(=O)N(C)[C@H](C[C@@H](OC(C)=O)c1nc(C(=O)NC23CC(C(=O)OC)(C2)C3)cs1)C(C)C` (stereo in doubt) [Tb14, Methyl 3-(2-((1R,3R)-1-acetoxy-3-((2S,3S)—N,3-dimethyl-2-((R)-1-methylpiperidine-2-carboxamido)-pentanamido)-4-methylpentyl)thiazole-4-carboxamido)bicyclo[1.1.1]pentane-1-carboxylate], the GI50 stood at 137 pM in the test with melanoma cell lines (NCI-60); 137 pM with melanoma cell lines (NCI-60, selected value); 382 pM in the test with CNS cancer cell lines (NCI-60); 382 pM in the test with CNS cancer cell lines (NCI-60, selected value); 364 pM in the test on renal cancer cell lines (NCI-60); 433 pM with colon cancer cell lines (NCI-60). Besides, the GI50 was 433 pM in the test with colon cancer cell lines (NCI-60, selected value); 267 pM with breast cancer cell lines (NCI-60); 156 pM in test [1] (NCI-60); 256 pM in [2] (NCI-60); 449 pM in [5] (NCI-60); 449 pM in test [5] (NCI-60, selected value). This compound also displayed a GI50 in test [6] (NCI-60) of 64 pM. Further, the IC50 in [3] (72 h) was 110 pM; in test [3], 110 pM; in test [4], over 50000 pM; in test [7] (72 h), 350 pM; in test [7] it was 350 pM.

For `CC[C@H](C)[C@H](NC(=O)[C@H]1CCCCN1C)C(=O)N(C)[C@H](C[C@@H](OC(C)=O)c1nc(C(=O)N[C@@H](Cc2ccccc2)C[C@H](C)C(=O)O)cs1)C(C)C` [Tb1, N^14-desacetoxytubulysin H], the GI50 amounted to 74 pM in the test on melanoma cell lines (NCI-60, selected value); 305 pM with CNS cancer cell lines (NCI-60, selected value); 548 pM in the test on renal cancer cell lines (NCI-60, selected value); 269 pM in the test with colon cancer cell lines (NCI-60, selected value); 147 pM in the test on breast cancer cell lines (NCI-60, selected value); 347 pM in [1] (NCI-60, selected value). Further, the GI50 was determined as 234 pM in test [2] (NCI-60, selected value); 339 pM in [5] (NCI-60, selected value); 264 pM in [6] (NCI-60, selected value). Besides, the IC50 was 20 pM in test [3] (72 h); 20 pM in [3]; over 10000 pM in test [4]; 340 pM in test [7] (72 h); 340 pM in [7].
